# Laboratory results: patent publication US12557812B2, “Method and composition for water treatment” (BROMINE COMPOUNDS LTD., priority 2019, dated 2026)
# Assays:
# [1] = tested on: P. aeruginosa strain PA14 biofilm; assay: Simultaneous application of CDA and biocide on 3-day biofilm in 24-well plates; format: cell-based, Pseudomonas aeruginosa; details: 15 ppm DBNPA, 310 nM CDA, two hours (FIG. 3)
# Procedure: (§1) The effect of bromine-containing biocide in combination with CDA on pre-grown biofilms was studied. The experiment was carried out utilizing (A) the P. aeruginosa strain PA14 and (B) mixed bacterial species derived from environmental and industrial water.
# (§2) Bacteria were cultured in EPRI medium supplemented with Hutners mineral solution and glucose (0.2%). Microorganisms were incubated at room temperature (22° C.), under aerobic conditions with shaking. The biofilm culture system used included polystyrene 24-well plates that were treated with protein to enhance attachment and growth of biofilm bacteria according to the method described in Davies D G, Marques C N, 2009, J Bacteriol 191:1393-1403.
# (§3) Following inoculation with 1 mL bacterial culture, spent medium was removed and replaced with sterile medium every 24 hours for 3 days, and a final medium exchange was performed 3 hours prior to treatment. Additionally, the medium was exchanged prior to treatment in order to remove planktonic bacteria. Treatments consisted of 100 μL of 310 nM CDA and bromine-containing biocide, or bromine-containing biocide alone at concentrations used in commercial water treatment, water was used as a carrier, for a contact time determined by activity of each biocide and ranging from 1 hour to 24 hours, as detailed below for each of the tested biocides.
# Following the treatment, the medium from each well was removed by pipet and 1 mL of DE neutralization broth was added in order to stop the treatment. Bacteria from each well were then removed by scraping the biofilm formed in the well with a sterile cell-scraper, and 1.0 mL of culture was transferred to chilled (4° C.) 9.0 mL DE neutralizing broth and homogenized for 15 seconds at 40,000 rpm on ice. Further dilutions were performed prior to enumeration (further neutralizing biocide activity). Recovery of bacteria were tested at different dilutions of biocide in water, in LB medium with thioglycolate and in DE neutralizing broth to ensure the active agent was properly neutralized. Viable bacteria were enumerated via the drop plate method. Each biocide was evaluated using 24-well plates with 8 wells each for the control cultures (Ctl) inoculated with P. aeruginosa but not treated, a CDA minus test (−CDA) treated with bromine-containing biocide only, and a CDA plus test treated with bromine-containing biocide and CDA (+CDA).
# [2] = tested on: P. aeruginosa (ATCC 700888) massive biofilm; assay: Sequential CDA then biocide on massive biofilm grown in drip flow tubes (modified ASTM 2647-13); format: cell-based, Pseudomonas aeruginosa; details: 30.0 ppm DBNPA 3 h after 310 nM CDA 2 h (FIG. 18)
# Text: The effect of the sequential addition of CDA and bromine-containing biocide was studied using P. aeruginosa biofilm grown in the drip flow tubes (according to a modification of standard ASTM 2647-13, standard Test Method for Quantification of Pseudomonas aeruginosa Biofilm Grown Using Drip Flow Biofilm Reactor with Low Shear and Continuous Flow). This method produces massive biofilm resulting with harsh conditions that are very difficult to treat. The addition of the bromine-containing biocide took place 120 min after the addition of 310 nM CDA (the biocide that was tested in this study was DBNPA).
# • a) A continuous once-through tube system was configured by using silicone coated latex tubes, connected to a peristaltic pump via additional silicone tubing. • b) The silicone coated latex tubes were inoculated by syringe injection of overnight cultures of P. aeruginosa (ATCC 700888), 5*10^7 CFU/ML in 10% TSB (Tryptic Soy Broth). […]
# The following treatments were conducted: • 1. […] Each dilution was cultured in duplicate (on R2A agar) for colony growth using the pour plating method. • h) The plates were incubated at 36° C. for 17-20 h. • i) The appropriate number of colonies were counted. […]
# [3] = tested on: biofilm culture derived from fresh-water mixed microbial community obtained from cooling tower water; assay: Simultaneous CDA and biocide on mixed biofilm from cooling tower water, 24-well plates; format: cell-based; details: 15 ppm DBNPA, 310 nM CDA, two hours (FIG. 5B)
# Procedure: as §1, §2
# as §3, with “biocides. […]” for “biocides.”
# [4] = Storage stability of biocide/CDA liquid concentrates (HPLC); format: physicochemical; details: Example 6 concentrate C103-PEG200-H2O-CDA-BHT 20:50:30:0.1:0.1; 25° C., two months
# Procedure: 22 mg of cis-2-decenoic acid (CiVentiChem, 96.72% purity) were charged into 50 ml flask, equipped with a stirrer 3.99 gr of C-103 (ICL, batch 640160147) were added, followed by 9.97 gr of PEG200 (Merck 8.07483.5000 Lot 56904983 451), 5.95 gr of DI water and 22 mg of BHT (Aldrich B1378-100G, BCBH9491V). The obtained solution was stirred till complete clarification; sonication at +30° C. is recommended if some particles are observed. Clear colorless solution of a total […] and 20:50:30:0.1:0.1 weight ratio of C103-PEG200-H2O-CDA-BHT was obtained.
# The solution was tested to determine the stability of the biocide and CDA and under storage at 25° C. over a two-month period.
# 47.6 mg or cis-2-decenoic acid (CiVentiChem, 96.72% purity) were charged into 50 ml flask, equipped with a stirrer. 9.01 gr of Bronopol (ICL, batch 17101607) were added, followed by 18.03 gr of propylene glycol (Biolab 16200201 Lot 1007861), 3.0 gr of DI water and 31.2 mg of BHT (Aldrich B1378-100G, BCBH9491V). After stirring for several minutes, undissolved traces of BHT were filtered through filtering paper for BHT particle removal. Clear colorless solution of a total 30 gr and 30:60:10:0.158:0.1 weight ratio of Bronopol-PG-H2O-CDA-BHT was obtained.
# [5] = tested on: undefined mixed microbial biofilm cultures derived from an environmental water source; assay: Simultaneous CDA and biocide on mixed biofilm from environmental water, 24-well plates; format: cell-based; details: 15 ppm DBNPA, 310 nM CDA, two hours (FIG. 5A)
# Procedure: as §1, §2
# as §3, with “biocides. […]” for “biocides.”
# [6] = tested on: Pseudomonas aeruginosa biofilm; assay: Sequential application of CDA then biocide on 3-day-old biofilm grown in CDC biofilm reactor (single tube method); format: cell-based; details: biocide 10 ppm
smiles,measurement,setting,value
"N#CC(Br)(Br)C(N)=O [DBNPA, 2,2-dibromo-3-nitrilopropionamide]",effect of biocide and CDA compared with biocide alone,[1],improved effect
same,enhancement of biocidal effect by combined treatment over biocide alone,[2],~2 log orders
same,effect of biocide and CDA compared with biocide alone,[3],improved result
same,degradation under storage (HPLC),[4],Neither DBNPA nor CDA underwent degradation
same,effect of biocide and CDA compared with biocide alone,[5],improved result
same,Log reduction vs. control: biocide alone,"[6]; 1 h contact time, 3-day-old biofilm",~3 log units
same,Enhancement,[6]; 310 nM CDA combination vs biocide alone,~2 log units
same,Log reduction vs. control: combination of the 310 nM CDA and biocide,[6]; 1 h CDA 310 nM then 1 h biocide,~5 log units
same,enhancement by combined treatment relative to biocide alone,"[6]; text of Example 2, 310 nM commercial CDA (97% by GC)",two
same,biofilm reduction by biocide alone,"[6]; text of Example 2, 1 h",reduces the biofilm
